Source: PMC7069944, “Amino acid levels determine metabolism and CYP450 function of hepatocytes and hepatoma cell lines” (Nature Communications, 2020)
Values joined by “and” are separate entries in the source; they are usually repeats but may differ in a detail not shown here. Equal entries are not always repeated.

Columns and labels:
HepG2 = assay: Repeated-exposure DILI training compounds, resazurin conversion, HepG2; conditions: replicates, listed as Triglitazone
Procedure, shortened: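 Viability by resazurin conversion, correlated with Cmax, was assessed after drug exposure in 384-well cultures of differentiated PSCs and of HepG2 (40,000 cells/well). Dosing began 8 h post-attachment, with untreated wells as negative control.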

HLC = assay: Repeated-exposure DILI training compounds, resazurin conversion, HLC; conditions: replicates, listed as Triglitazone
Procedure, shortened: (§1)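 Hepatotoxicity prediction used a miniaturized 384-well differentiation setup, scoring viability through resazurin reduction relative to Cmax.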

HC3X = assay: Repeated-exposure DILI training compounds, resazurin conversion, HC3X; conditions: for resazurin conversion (Supplementary Figure 7D): HC3X AAGLY D40, replicates, listed as Triglitazone
Procedure, shortened: as §1

HC6X = assay: Repeated-exposure DILI training compounds, resazurin conversion, HC6X; conditions: replicates, listed as Triglitazone
Procedure, shortened: as §1

Compound: Cc1c(C)c2c(c(C)c1O)CCC(C)(COc1ccc(CC3SC(=O)NC3=O)cc1)O2 (centres unmarked) [troglitazone]
- resazurin conversion (Supplementary Figure 7D) (HepG2; HepG2 AAGLY D30, 3 uM): 98.3 and 94.5 and 92
- resazurin conversion (Supplementary Figure 7D) (HepG2; HepG2 AAGLY D30, 5 uM): 68.5 and 110.9 and 79 and 93.8 and 74.1 and 107
- resazurin conversion (Supplementary Figure 7D) (HepG2; HepG2 AAGLY D30, 10 uM): 74 and 89.9 and 83.3 and 84.8 and 74.9 and 104.6
- resazurin conversion (Supplementary Figure 7D) (HepG2; HepG2 AAGLY D30, 30 uM): 79.1 and 100.2 and 93 and 115.8 and 83.4 and 116.8
- resazurin conversion (Supplementary Figure 7D) (HepG2; HepG2 AAGLY D30, 50 uM): 83.1 and 117.7 and 95.2 and 107.4 and 94.4 and 118.1
- resazurin conversion (Supplementary Figure 7D) (HepG2; HepG2 AAGLY D30, 100 uM): 64.7 and 70 and 66.6 and 77.3 and 64.4 and 73.3
- resazurin conversion (Supplementary Figure 7D) (HepG2; HepG2 AAGLY D30, 300 uM): 29.5 and 32.5 and 30.3 and 31.2 and 30.4 and 32
- resazurin conversion (Supplementary Figure 7D) (HepG2; HepG2 AAGLY D30, 600 uM): 29.5 and 33.9 and 30.8 and 32.7 and 30.9 and 34.9
- resazurin conversion (Supplementary Figure 7D) (HepG2; HepG2 AAGLY D30, 1200 uM): 31 and 33.3 and 30.9 and 31.3 and 30.2 and 34.1
- resazurin conversion (Supplementary Figure 7D) (HepG2; HepG2 CTL D7, 3 uM): 96.5
- resazurin conversion (Supplementary Figure 7D) (HepG2; HepG2 CTL D7, 5 uM): 108.7 and 103 and 108 and 101.8 and 110.4 and 108.6
- resazurin conversion (Supplementary Figure 7D) (HepG2; HepG2 CTL D7, 10 uM): 100.5 and 91 and 96 and 94.6 and 100.7 and 102
- resazurin conversion (Supplementary Figure 7D) (HepG2; HepG2 CTL D7, 30 uM): 107.7 and 102.1 and 104.6 and 106.5 and 111.7 and 103.3
- resazurin conversion (Supplementary Figure 7D) (HepG2; HepG2 CTL D7, 50 uM): 106.3 and 99.2 and 103.6 and 101.1 and 106.7 and 102.4
- resazurin conversion (Supplementary Figure 7D) (HepG2; HepG2 CTL D7, 100 uM): 21.4 and 9.6 and 9.2 and 17 and 16.3 and 15.4
- resazurin conversion (Supplementary Figure 7D) (HepG2; HepG2 CTL D7, 300 uM): 8.5 (3×) and 8.1 and 8.3 and 8.2
- resazurin conversion (Supplementary Figure 7D) (HepG2; HepG2 CTL D7, 600 uM): 8.3 and 8 (2×) and 8.4 and 7.9 (2×)
- resazurin conversion (Supplementary Figure 7D) (HepG2; HepG2 CTL D7, 1200 uM): 9.4 and 9.5 and 9.7 and 9.2 and 9.3 and 9.1
- resazurin conversion (Supplementary Figure 7D) (HLC; HLC AAGLY D40, 5 uM): 153.5 and 121.4 and 146 and 101.6 and 123.2 and 125.5
- resazurin conversion (Supplementary Figure 7D) (HLC; HLC AAGLY D40, 10 uM): 135.4 and 92.9 and 151 and 74.5 and 125.5 and 149.7
- resazurin conversion (Supplementary Figure 7D) (HLC; HLC AAGLY D40, 30 uM): 16.5 and 14.5 and 14 and 11.9 and 15.8 and 12.7
- resazurin conversion (Supplementary Figure 7D) (HLC; HLC AAGLY D40, 50 uM): 11.8 (3×) and 11.4 (2×) and 11.7
- resazurin conversion (Supplementary Figure 7D) (HLC; HLC AAGLY D40, 100 uM): 11.9 (2×) and 12.3 and 12.2 and 12.1 (2×)
- resazurin conversion (Supplementary Figure 7D) (HLC; HLC AAGLY D40, 300 uM): 12.4 and 12.8 (2×) and 12.6 (2×) and 12.7
- resazurin conversion (Supplementary Figure 7D) (HLC; HLC AAGLY D40, 600 uM): 13.8 (2×) and 13.7 and 13.2 and 13.4 and 13.6
- resazurin conversion (Supplementary Figure 7D) (HLC; HLC AAGLY D40, 1200 uM): 14.9 and 14.8 and 14.3 and 15 and 14.7 and 14.5
- resazurin conversion (Supplementary Figure 7D) (HLC; HLC LDM D40, 3 uM): 124.9 and 86.8 and 81.1 and 83.4
- resazurin conversion (Supplementary Figure 7D) (HLC; HLC LDM D40, 5 uM): 112.5 and 109.2 and 104.5 and 65.4 and 87.8 and 121.6
- resazurin conversion (Supplementary Figure 7D) (HLC; HLC LDM D40, 10 uM): 119.2 and 88.2 and 119.3 and 84.6 and 119 and 129.3
- resazurin conversion (Supplementary Figure 7D) (HLC; HLC LDM D40, 30 uM): 64.9 and 19.9 and 24.5 and 26.5 and 51.6 and 125
- resazurin conversion (Supplementary Figure 7D) (HLC; HLC LDM D40, 50 uM): 9.4 and 9.5 and 9.6 and 12.8 and 134 and 114.9
- resazurin conversion (Supplementary Figure 7D) (HLC; HLC LDM D40, 100 uM): 9.6 and 9.9 and 9.7 and 9.4 and 10.4 and 10.1
- resazurin conversion (Supplementary Figure 7D) (HLC; HLC LDM D40, 300 uM): 10.1 (2×) and 10.3 and 9.6 and 10 and 10.2
- resazurin conversion (Supplementary Figure 7D) (HLC; HLC LDM D40, 600 uM): 10.4 and 10.5 and 10.2 (2×) and 10.8 and 11.3
- resazurin conversion (Supplementary Figure 7D) (HLC; HLC LDM D40, 1200 uM): 11.2 (3×) and 11.3 and 11.1 and 11.5
- resazurin conversion (Supplementary Figure 7D) (HC3X; 3 uM): 100.4 and 118.6 and 117.6 and 139.7 and 113 and 95.6
- resazurin conversion (Supplementary Figure 7D) (HC3X; 5 uM): 108.1 and 113 and 110 and 124 and 122.3 and 125.6
- resazurin conversion (Supplementary Figure 7D) (HC3X; 10 uM): 64.3 and 64.1 and 94.3 and 59.1 and 78.4 and 71.8
- resazurin conversion (Supplementary Figure 7D) (HC3X; 30 uM): 7.7 (3×) and 7.6 (2×) and 7.8
- resazurin conversion (Supplementary Figure 7D) (HC3X; 50 uM): 7.8 (4×) and 7.7 and 7.9
- resazurin conversion (Supplementary Figure 7D) (HC3X; 100 uM): 7.7 and 7.9 (2×) and 8 (2×) and 7.8
- resazurin conversion (Supplementary Figure 7D) (HC3X; 300 uM): 8.6 (2×) and 8.5 and 8.4 and 8.7 and 8.3
- resazurin conversion (Supplementary Figure 7D) (HC3X; 600 uM): 8.6 and 9 and 8.5 and 8.7 and 8.8 and 9.1
- resazurin conversion (Supplementary Figure 7D) (HC3X; 1200 uM): 8.5 and 8.9 and 8.6 (2×) and 8.8 and 9
- IC50/Cmax (HC3X; human): 1.6
- resazurin conversion (Supplementary Figure 7D) (HC6X; HC6X AAGLY D40, 3 uM): 67.6 and 80.5 and 115.9 and 110.8
- resazurin conversion (Supplementary Figure 7D) (HC6X; HC6X AAGLY D40, 5 uM): 97.5 and 124.6 and 75.2 and 88 and 91.2 and 78.9
- resazurin conversion (Supplementary Figure 7D) (HC6X; HC6X AAGLY D40, 10 uM): 28.6 and 26.8 and 51 and 28.8 and 31.8 and 23.3
- resazurin conversion (Supplementary Figure 7D) (HC6X; HC6X AAGLY D40, 30 uM): 17.6 and 19.6 and 21.9 and 19.3 and 17.4 and 18.4
- resazurin conversion (Supplementary Figure 7D) (HC6X; HC6X AAGLY D40, 50 uM): 18.5 and 22.2 and 22.6 and 19.7 and 17.5 and 18.3
- resazurin conversion (Supplementary Figure 7D) (HC6X; HC6X AAGLY D40, 100 uM): 17.7 (2×) and 19.3 and 19.5 and 17.5 and 18.3
- resazurin conversion (Supplementary Figure 7D) (HC6X; HC6X AAGLY D40, 300 uM): 18.9 and 19.1 and 19.4 (2×) and 19.9 and 18.8
- resazurin conversion (Supplementary Figure 7D) (HC6X; HC6X AAGLY D40, 600 uM): 20.5 and 21.3 and 23.4 and 22.4 (2×) and 23.3
- resazurin conversion (Supplementary Figure 7D) (HC6X; HC6X AAGLY D40, 1200 uM): 19.6 and 19.4 and 20.1 and 19.9 and 18.6 and 18.9
- resazurin conversion (Supplementary Figure 7D) (HC6X; HC6X AAGLY D40 Remove dox, 5 uM): 197.5 and 139.5 and 221.6 and 148.2 and 134.8 and 149.8
- resazurin conversion (Supplementary Figure 7D) (HC6X; HC6X AAGLY D40 Remove dox, 10 uM): 133 and 100.2 and 218.5 and 104.9 and 119 and 93.7
- resazurin conversion (Supplementary Figure 7D) (HC6X; HC6X AAGLY D40 Remove dox, 30 uM): 24.4 and 26.5 and 25.9 (2×) and 27.1 and 24.9
- resazurin conversion (Supplementary Figure 7D) (HC6X; HC6X AAGLY D40 Remove dox, 50 uM): 23.5 (2×) and 23.1 and 23.9 and 23.4 and 23.3
- resazurin conversion (Supplementary Figure 7D) (HC6X; HC6X AAGLY D40 Remove dox, 100 uM): 24.4 and 24.5 and 24 and 23.7 and 23.5 and 24.2
- resazurin conversion (Supplementary Figure 7D) (HC6X; HC6X AAGLY D40 Remove dox, 300 uM): 25.6 and 24.8 (2×) and 25 (2×) and 24.6
- resazurin conversion (Supplementary Figure 7D) (HC6X; HC6X AAGLY D40 Remove dox, 600 uM): 26.9 and 26.7 and 26.1 (2×) and 25.7 and 26.3
- resazurin conversion (Supplementary Figure 7D) (HC6X; HC6X AAGLY D40 Remove dox, 1200 uM): 28.5 (2×) and 27.6 and 27.4 and 27.9 and 28.4
